Data set [1] in a line: Parallel artificial membrane permeability assay (PAMPA). Background: In PAMPA a lipid-coated filter parts donor from acceptor wells.
Data set [2] is described as follows: Hepatotoxicity assay, HepG2 cell viability. The note with it: human, HepG2 hepatoma cells, 100 µM, read-out: HepG2 cell viability, % of the control. Format: cell-based. As to the method: The cell-based assays were used to investigate safety of the 5-HT6R ligands. […] During the same study, no effect for KMP-10 was observed. Additional safety tests with the hepatoma HepG2 cell line were performed here to estimate the compounds’ hepatotoxicity. A slight antiproliferative effect was observed only for DJ-18 at 100 µM, where the cell viability was decreased to up to ~83% of the control (Figure 9a).
Hepatotoxicity was estimated using the hepatoma HepG2 (ATCC® HB-8065^TM) cell line according to previously described protocols. The CellTiter 96® AQueous Non-Radioactive Cell Proliferation Assay was obtained from Promega (Madison, WI, USA). The compounds were investigated in quadruplicate at four concentrations (0.1–100 µM) for 72h. The antiproliferative drug DX was used as a positive control at a dose of 1 µM.

For another data set, the target named is D2. Details: method as in PMID 30282913. The note with it: radioligand binding, average of at least two independent experiments; read-out: Ki D2 [3H]-Raclopride; cited from earlier work.
A short description of data set [3]: Metabolic stability and metabolic pathways in human liver microsomes.
Experimental: The pharmacokinetic parameters of compounds were estimated by using human liver microsomes (HLMs) (Sigma-Aldrich, St. Louis, MO, USA). The t1/2 values and intrinsic clearances (CLint) were calculated with IS by using the protocols and formulas proposed by Obach [38]. […] VL was used as the reference unstable drug.
The next data set has as its target 5-HT1A. Details: method as in PMID 30282913. The following applies: radioligand binding, average of at least two independent experiments; read-out: Ki 5-HT1A [3H]-8-OH-DPAT; cited from earlier work.
The subject of data set [4] is human embryonic kidney (HEK)-293 cells. On the set-up: method as in PMID 30282913. The following applies: highest concentration 100 µM; cited from earlier work.
The next data set concerns the target 5-HT7. Details: method as in PMID 30282913. The following applies: radioligand binding, average of at least two independent experiments; read-out: Ki 5-HT7 [3H]-5-CT; cited from earlier work.
Another data set concerns the target 5-HT6. Details: method as in PMID 30282913. The note with it: radioligand binding, average of at least two independent experiments; read-out: Ki 5-HT6 [3H]-LSD; cited from earlier work.
Details of data set [5]: method as in PMID 29297106. The note with it: earlier studies; cited from earlier work.
In another data set the target is T1, CYP2D6 (Homo sapiens, UniProt P10635).
T1 construct: purchased Promega (Madison, WI, USA)
T1 sequence (P10635 whole entry): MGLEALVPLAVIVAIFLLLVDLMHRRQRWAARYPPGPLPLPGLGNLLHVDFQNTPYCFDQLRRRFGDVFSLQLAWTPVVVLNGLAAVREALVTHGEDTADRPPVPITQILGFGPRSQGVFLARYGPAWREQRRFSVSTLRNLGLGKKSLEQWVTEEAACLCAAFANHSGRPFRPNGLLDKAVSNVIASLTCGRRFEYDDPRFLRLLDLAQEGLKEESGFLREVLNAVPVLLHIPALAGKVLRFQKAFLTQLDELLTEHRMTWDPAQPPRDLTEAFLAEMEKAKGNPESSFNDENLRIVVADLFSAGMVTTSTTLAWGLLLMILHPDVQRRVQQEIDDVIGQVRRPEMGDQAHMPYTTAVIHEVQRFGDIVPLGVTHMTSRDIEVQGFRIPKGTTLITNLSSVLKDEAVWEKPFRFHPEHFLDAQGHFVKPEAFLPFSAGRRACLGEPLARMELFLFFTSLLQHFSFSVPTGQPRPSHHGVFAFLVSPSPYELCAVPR
Details: method as in PMID 28212021. The following applies: cited from earlier work.

The next data set deals with T2, CYP3A4 (Homo sapiens, UniProt P08684).
T2 construct: purchased Promega (Madison, WI, USA)
T2 sequence (P08684 whole entry): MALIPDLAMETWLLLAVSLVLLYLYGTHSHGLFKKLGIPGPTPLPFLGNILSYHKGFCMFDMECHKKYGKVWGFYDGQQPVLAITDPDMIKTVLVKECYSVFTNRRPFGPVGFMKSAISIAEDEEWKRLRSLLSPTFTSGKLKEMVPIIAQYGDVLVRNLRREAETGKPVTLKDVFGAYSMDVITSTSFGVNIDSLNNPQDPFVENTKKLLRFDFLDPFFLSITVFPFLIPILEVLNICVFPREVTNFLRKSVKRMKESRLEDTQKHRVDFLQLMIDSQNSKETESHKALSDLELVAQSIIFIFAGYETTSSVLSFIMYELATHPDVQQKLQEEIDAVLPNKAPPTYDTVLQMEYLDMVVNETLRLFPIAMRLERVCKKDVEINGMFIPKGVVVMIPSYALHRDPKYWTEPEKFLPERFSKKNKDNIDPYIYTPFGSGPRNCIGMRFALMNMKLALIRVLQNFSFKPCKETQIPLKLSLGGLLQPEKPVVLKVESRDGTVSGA
Details: method as in PMID 28212021. The note with it: cited from earlier work.

The conditions of data set [6]: cited from earlier work.

These results are taken from publication PMC6943527, “Are the Hydantoin-1,3,5-triazine 5-HT6R Ligands a Hope to a Find New Procognitive and Anti-Obesity Drug? Considerations Based on Primary In Vivo Assays and ADME-Tox Profile In Vitro” (Molecules, 2019).

For orientation: Papp means the rate of passage across a membrane or cell layer, normalised by area and donor concentration. By viability is commonly meant a per cent measure of how many cells are alive, often set against a control. As usually defined, the Ki is the equilibrium dissociation constant of an inhibitor or competing ligand from its target. In general, half-life refers to the time needed for the level to fall by half in the phase considered. The low end stands for rapid decline, the high end for slow decline. Molecule `CN1CCN(c2nc(N)nc(CN3C(=O)N(Cc4ccc(Cl)cc4)C(C)(C)C3=O)n2)CC1` [DJ-18] yielded a Papp at 5 h, 200 µM in [1] (PAMPA, pH 7.4) of 24.9 ± 0.45 ×10⁻⁶ cm/s. Besides, the “PAMPA ability to penetrate the artificial membrane, fold stronger than caffeine” value in data set [1] (vs high-permeable reference caffeine) is ~ 1.65. Moreover, the viability at 72 h, 100 µM in data set [2] is ~83%. The Ki at D2 was 4.1 µM. For the same molecule, in data set [3] (HLMs, 120 min incubation), the “Metabolic Pathway, metabolite M1” value is “demethylation”; the “Metabolic Pathway, metabolite M2” value is on record as “hydroxylation”; the “Metabolic Pathway, metabolite M3” value was “demethylation and hydroxylation”; the “Metabolic Pathway, metabolite M4” value is “hydroxylation”. In addition, the “Intrinsic Clearance CLint” value in [3] (HLMs, reactions terminated at 5, 15, 30 and 45 min) was determined as 4.32 mL/min/kg. For the same molecule, the “t1/2, fold longer than verapamil” value in data set [3] (HLMs, vs unstable reference verapamil) was ~ 6 fold. Further, the half-life in data set [3] (human, liver microsomes, Half-Life t1/2, HLMs, reactions terminated at 5, 15, 30 and 45 min) amounted to 3.12 h. Further, on 5-HT1A, the Ki was 23.3 µM. In addition, the HEK-293 cells viability result in data set [4] is given as “statistically significant slight decrease”. For the same molecule, the Ki at 5-HT7 is 3.71 µM. Besides, the Ki at 5-HT6 is 0.127 µM.
`Fc1ccc2c(CCNCc3cccc(OCC(F)(F)C(F)F)c3)c[nH]c2c1` [Idalopirdine]: in data set [5], the “Amount of visceral fat” value is given as “significantly reduced” and the Elevated glucose levels entry was “compensated for elevated glucose levels”.
On to `CCn1cc(C(=O)O)c(=O)c2cc(F)c(N3CCNCC3)cc21` [Norfloxacin, norfloxacin, reference compound], for which the “PAMPA Pe ± SD” value in data set [1] (200 µM in PBS pH 7.4, 5 h, room temperature, triplicate) is 0.56 ± 0.13 10^−6 cm/s.
As for `COc1ccc2c(c1)c(CN1CCN(C)CC1)cn2S(=O)(=O)c1ccccc1Br.CS(=O)(=O)O.CS(=O)(=O)O.O` [SUVN-502, 1-[(2-Bromophenyl)sulfonyl]-5-methoxy-3-[(4-methyl-1-piperazinyl)methyl]-1H-indole Dimesylate Monohydrate], the CYP2D6 inhibition result at CYP2D6 was “weaker inhibitor”. Also, the CYP3A4 inhibition entry on CYP3A4 is given as “rather strong inhibitor”. Also, in [6] (after oral administration), the BBB-penetration entry was “good BBB (blood brain barrier)-penetration”. The t1/2 in vivo in [6] (pharmacokinetics in vivo) was 0.95 h.
